This experiment addresses T1, WIZ (Homo sapiens, UniProt O95785+Q96SW2).
T1 construct: expressed in transfected cells
As to the kind of experiment: Quantification of WIZ protein levels in HiBit tag fusion protein assay (WIZ HiBit assay in 293T cells). Format: cell-based. The settings on record: for Dmax at 25 µM / remaining activity at 25 µM: HEK-293T; for Dmax at 25 µM: 100 minus Amax at 25 uM, read-out: % degradation of WIZ (100-Amax); for remaining activity at 25 µM: DMSO-normalized, curve-fitted percentage of WIZ-HiBit remaining at 25 uM, read-out: WIZ Amax; for DC50: WIZ HiBit assay in 293T cells, 10-point, 5-fold dilution, highest concentration 25 μM, about 18 hours, read-out: WIZ AC50. On the procedure:
The HiBit system from Promega was used to develop high-throughput and quantitative assays to measure changes in WIZ protein levels in response to compounds. The HiBit tag was derived from a split Nanoluciferase and has the following protein sequence: […] (SEQ ID NO: 1). The complementary fragment of Nanoluciferase (known as LgBit, from Promega), was added to the HiBit tag to form an active Nanoluciferase enzyme whose activity can be precisely measured. In this way, the levels of a fusion protein with the HiBit tag can be quantified in cell lysates.
Lentiviral vectors, based on the Invitrogen™ pLenti6.2/V5 DEST backbone were constructed that places the HiBit tag upstream of WIZ and expressed the fusion protein from an HSVTK promotor.
To ensure moderate and consistent expression of the HiBit-WIZ fusion protein across all cells in the population, stable cell lines were constructed from cells harboring a single copy of the construct. Lentivirus packaged with the constructs were made using the ViraPower™kit from Invitrogen™. 293T cells from ATCC (Catalog number: CRL-3216), were infected with the virus at low multiplicity of infection and selected by 5 μg/mL blasticidin in culture media for 2 weeks.
The levels of HiBit-WIZ tagged fusion proteins in compound-treated cell lines were measured as follows:
On day 1, cells were diluted to 1.0×10^6 cells/ml in normal growth medium. 20 μL of cell suspension were plated in each well of a solid white 384-well plate. Plates were incubated overnight in a 37° C. and 5% CO2 humidified tissue culture incubator.
On day 2, serial dilutions of compounds were made in 384-well plates. Compound plates were set up with DMSO in columns 1, 2, 23, 24, and 10-point compound dilution series in column 3-12 and column 13-22. 10 mM stock solution of compound were placed into column 3 or 13 and a 1:5 serial dilution was carried out until there was a 10-point dilution series per compound. 50 nL of diluted compounds were transferred into the plated cells by Echo® (Labcyte) acoustic transfer. The highest concentration of compound was 25 μM. Plates were incubated overnight (about 18 hours) in a 37° C. and 5% CO2 humidified tissue culture incubator.
On day 3, plates were removed from the incubator and allowed to equilibrate at room temperature for 60 minutes. HiBit substrate (Nano-Glo® HiBit Lytic Detection System, Promega Catalogue number: N3050) was added as described by the manufacturers protocols. Plates were incubated at room temperature for 30 minutes and luminescence was read using an EnVision® reader (PerkinElmer®). Data was analyzed and visualized using the Spotfire® software package.
WIZ Amax reflects the DMSO-normalized, curve-fitted percentage of WIZ-HiBit remaining at 25 uM. It was calculated by normalizing DMSO controls to 100%, parametric curve fitting of the dose response data (10-point, 5-fold), followed by calculation of response at 25 uM using the fitted equation (nd=not determined).

The source of these data is patent publication US20250276964A1 (Novartis AG, priority 2021, published 2025).

The structures appear in SMILES notation.

T1 sequence (O95785 whole entry): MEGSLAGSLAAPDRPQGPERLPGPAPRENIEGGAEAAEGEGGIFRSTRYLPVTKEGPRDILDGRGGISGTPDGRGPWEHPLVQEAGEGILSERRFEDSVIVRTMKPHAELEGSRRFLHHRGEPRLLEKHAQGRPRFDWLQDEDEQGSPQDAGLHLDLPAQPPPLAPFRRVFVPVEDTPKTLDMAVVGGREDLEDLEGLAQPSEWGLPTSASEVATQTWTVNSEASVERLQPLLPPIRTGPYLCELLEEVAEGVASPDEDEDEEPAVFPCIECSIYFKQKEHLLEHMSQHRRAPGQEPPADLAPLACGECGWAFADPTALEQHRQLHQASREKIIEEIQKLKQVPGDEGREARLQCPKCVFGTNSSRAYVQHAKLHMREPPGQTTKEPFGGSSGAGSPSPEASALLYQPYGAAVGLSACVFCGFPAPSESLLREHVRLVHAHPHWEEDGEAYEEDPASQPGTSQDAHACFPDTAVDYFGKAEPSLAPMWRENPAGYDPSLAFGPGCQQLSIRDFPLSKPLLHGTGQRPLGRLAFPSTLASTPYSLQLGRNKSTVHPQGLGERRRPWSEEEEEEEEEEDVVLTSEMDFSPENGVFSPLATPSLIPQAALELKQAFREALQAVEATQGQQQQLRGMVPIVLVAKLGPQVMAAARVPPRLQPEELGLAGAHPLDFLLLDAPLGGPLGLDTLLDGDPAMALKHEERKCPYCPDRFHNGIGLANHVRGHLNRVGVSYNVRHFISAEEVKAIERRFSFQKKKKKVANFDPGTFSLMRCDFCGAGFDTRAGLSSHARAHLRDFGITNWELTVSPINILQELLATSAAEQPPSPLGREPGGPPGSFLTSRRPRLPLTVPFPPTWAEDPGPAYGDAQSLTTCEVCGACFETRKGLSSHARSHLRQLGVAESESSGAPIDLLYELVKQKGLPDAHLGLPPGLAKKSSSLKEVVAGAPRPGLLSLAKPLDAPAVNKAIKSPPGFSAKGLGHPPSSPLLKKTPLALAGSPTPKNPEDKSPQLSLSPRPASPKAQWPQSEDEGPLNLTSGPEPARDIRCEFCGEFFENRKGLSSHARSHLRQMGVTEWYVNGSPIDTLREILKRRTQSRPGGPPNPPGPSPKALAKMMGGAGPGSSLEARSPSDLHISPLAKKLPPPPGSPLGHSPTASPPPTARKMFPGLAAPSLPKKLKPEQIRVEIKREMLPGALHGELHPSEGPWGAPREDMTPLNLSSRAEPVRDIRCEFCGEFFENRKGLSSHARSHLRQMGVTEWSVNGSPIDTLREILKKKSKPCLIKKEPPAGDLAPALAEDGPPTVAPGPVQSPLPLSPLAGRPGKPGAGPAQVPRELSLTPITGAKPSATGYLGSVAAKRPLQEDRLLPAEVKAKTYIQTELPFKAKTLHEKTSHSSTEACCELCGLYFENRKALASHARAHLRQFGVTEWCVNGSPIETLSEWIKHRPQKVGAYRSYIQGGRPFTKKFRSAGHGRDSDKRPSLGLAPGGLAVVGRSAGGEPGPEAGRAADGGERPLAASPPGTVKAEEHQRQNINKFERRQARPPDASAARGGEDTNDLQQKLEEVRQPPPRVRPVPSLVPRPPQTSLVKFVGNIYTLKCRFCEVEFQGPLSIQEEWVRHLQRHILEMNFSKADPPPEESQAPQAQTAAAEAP
T1 sequence (Q96SW2 whole entry): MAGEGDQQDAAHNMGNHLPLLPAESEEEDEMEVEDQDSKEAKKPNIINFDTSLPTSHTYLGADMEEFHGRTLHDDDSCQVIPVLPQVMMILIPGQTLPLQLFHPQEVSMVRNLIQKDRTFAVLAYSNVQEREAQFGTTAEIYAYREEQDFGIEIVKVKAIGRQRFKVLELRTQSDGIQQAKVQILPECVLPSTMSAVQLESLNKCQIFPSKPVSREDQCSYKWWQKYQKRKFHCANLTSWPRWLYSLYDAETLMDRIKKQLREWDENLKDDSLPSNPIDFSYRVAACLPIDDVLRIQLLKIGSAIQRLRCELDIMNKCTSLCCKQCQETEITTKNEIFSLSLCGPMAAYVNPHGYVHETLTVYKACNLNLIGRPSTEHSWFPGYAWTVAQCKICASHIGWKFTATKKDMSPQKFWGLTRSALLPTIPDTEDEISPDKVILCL
T1 sequence (Q16531 whole entry partner): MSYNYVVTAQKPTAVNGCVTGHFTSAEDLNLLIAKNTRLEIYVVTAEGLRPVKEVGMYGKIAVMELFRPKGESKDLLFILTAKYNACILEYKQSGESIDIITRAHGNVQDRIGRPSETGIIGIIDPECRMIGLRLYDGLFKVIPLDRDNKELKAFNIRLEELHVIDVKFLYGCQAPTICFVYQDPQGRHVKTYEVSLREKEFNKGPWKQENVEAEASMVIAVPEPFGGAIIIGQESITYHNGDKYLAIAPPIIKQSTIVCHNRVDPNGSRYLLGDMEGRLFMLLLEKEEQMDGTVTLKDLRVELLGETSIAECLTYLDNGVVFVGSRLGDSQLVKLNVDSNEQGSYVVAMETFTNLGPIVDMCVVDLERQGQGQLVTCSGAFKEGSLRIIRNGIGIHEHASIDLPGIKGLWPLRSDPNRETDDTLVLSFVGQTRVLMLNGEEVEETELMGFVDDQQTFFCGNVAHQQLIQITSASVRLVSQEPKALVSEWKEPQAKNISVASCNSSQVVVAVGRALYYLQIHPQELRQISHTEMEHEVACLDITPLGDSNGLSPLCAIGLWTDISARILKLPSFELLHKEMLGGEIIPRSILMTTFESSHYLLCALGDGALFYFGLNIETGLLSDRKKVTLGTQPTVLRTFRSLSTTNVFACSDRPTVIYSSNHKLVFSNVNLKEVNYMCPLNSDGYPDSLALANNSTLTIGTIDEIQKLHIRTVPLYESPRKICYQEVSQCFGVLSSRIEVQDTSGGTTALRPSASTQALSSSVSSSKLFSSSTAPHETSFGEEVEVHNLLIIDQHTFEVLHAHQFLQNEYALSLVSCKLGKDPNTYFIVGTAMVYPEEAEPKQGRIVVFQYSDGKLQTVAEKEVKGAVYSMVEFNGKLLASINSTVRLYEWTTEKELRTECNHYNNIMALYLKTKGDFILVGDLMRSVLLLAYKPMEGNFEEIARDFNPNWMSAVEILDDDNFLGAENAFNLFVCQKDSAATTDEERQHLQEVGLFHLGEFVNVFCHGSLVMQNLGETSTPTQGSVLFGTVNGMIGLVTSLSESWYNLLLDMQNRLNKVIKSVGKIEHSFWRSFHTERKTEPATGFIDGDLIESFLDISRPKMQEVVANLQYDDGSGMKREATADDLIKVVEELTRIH

For `O=C1CCN(c2noc3ccc(CC4CCN(Cc5ccccc5)CC4)cc23)C(=O)N1` [Example 9, 1-(5-((1-benzylpiperidin-4-yl)methyl)benzo[d]isoxazol-3-yl)dihydropyrimidine-2,4(1H,3H)-dione], the Dmax at 25 µM came to 91%, the remaining activity at 25 µM turned out to be 9% and the DC50 was 56 nM.
For `CN1CCC(Cc2ccc3onc(N4CCC(=O)NC4=O)c3c2)CC1` [Example 10, 1-(5-((1-methylpiperidin-4-yl)methyl)benzo[d]isoxazol-3-yl)dihydropyrimidine-2,4(1H,3H)-dione] the same measures were 90%, 10% and 45 nM.
As to `O=C1CCN(c2noc3ccc(CC4CCN(CCC5CCCCC5)CC4)cc23)C(=O)N1` [Example 11, 1-(5-((1-(2-cyclohexylethyl)piperidin-4-yl)methyl)benzo[d]isoxazol-3-yl)dihydropyrimidine-2,4(1H,3H)-dione], the Dmax at 25 µM is 90%, the remaining activity at 25 µM stood at 10% and the DC50 was 11 nM.
For `Cc1ccccc1CN1CCC(Cc2ccc3onc(N4CCC(=O)NC4=O)c3c2)CC1` [Example 12, 1-(5-((1-(2-methylbenzyl)piperidin-4-yl)methyl)benzo[d]isoxazol-3-yl)dihydropyrimidine-2,4(1H,3H)-dione] the same measures were 90%, 10% and 44 nM.
For the molecule `O=C1CCN(c2noc3ccc(CC4CCN(CC(F)(F)F)CC4)cc23)C(=O)N1` [Example 13, 1-(5-((1-(2,2,2-trifluoroethyl)piperidin-4-yl)methyl)benzo[d]isoxazol-3-yl)dihydropyrimidine-2,4(1H,3H)-dione], the Dmax at 25 µM is 89%, the remaining activity at 25 µM turned out to be 11% and the DC50 was determined as 39 nM.
The like results for `CC(C)S(=O)(=O)N1CCC(Cc2ccc3onc(N4CCC(=O)NC4=O)c3c2)CC1` [Example 14, 1-(5-((1-(isopropylsulfonyl)piperidin-4-yl)methyl)benzo[d]isoxazol-3-yl)dihydropyrimidine-2,4(1H,3H)-dione] were, in that order, 90%, 10% and 14 nM.
Consider `O=C1CCN(c2noc3ccc(CN4CCN(CC5CCCCC5)CC4)cc23)C(=O)N1` [Example 21, 1-(5-((4-(cyclohexylmethyl)piperazin-1-yl)methyl)benzo[d]isoxazol-3-yl)dihydropyrimidine-2,4(1H,3H)-dione], for which the Dmax at 25 µM was 90%, the remaining activity at 25 µM turned out to be 10% and the DC50 worked out at 19 nM.
For the molecule `CN1CCN(Cc2ccc3onc(N4CCC(=O)NC4=O)c3c2)CC1` [Example 22, 1-(5-((4-methylpiperazin-1-yl)methyl)benzo[d]isoxazol-3-yl)dihydropyrimidine-2,4(1H,3H)-dione], the Dmax at 25 µM was determined as 91%, the remaining activity at 25 µM was 9% and the DC50 came to 10 nM.
As to `O=C1CCN(c2noc3ccc(CN4CCN(CC5CCOCC5)CC4)cc23)C(=O)N1` [Example 23, 1-(5-((4-((tetrahydro-2H-pyran-4-yl)methyl)piperazin-1-yl)methyl)benzo[d]isoxazol-3-yl)dihydropyrimidine-2,4(1H,3H)-dione], the Dmax at 25 µM worked out at 91%, the remaining activity at 25 µM came to 9% and the DC50 was 4 nM.
The like results for `CC(C)CN1CCN(Cc2ccc3onc(N4CCC(=O)NC4=O)c3c2)CC1` [Example 24, 1-(5-((4-isobutylpiperazin-1-yl)methyl)benzo[d]isoxazol-3-yl)dihydropyrimidine-2,4(1H,3H)-dione] were, in that order, 89%, 11% and 37 nM.
As for `O=C1CCN(c2noc3ccc(CN4CCN(Cc5ccccc5)CC4)cc23)C(=O)N1` [Example 25, 1-(5-((4-benzylpiperazin-1-yl)methyl)benzo[d]isoxazol-3-yl)dihydropyrimidine-2,4(1H,3H)-dione], the Dmax at 25 µM was 87%, the remaining activity at 25 µM stood at 13% and the DC50 turned out to be 130 nM.
The like results for `O=C1CCN(c2noc3ccc(CN4CCN(Cc5cccnc5)CC4)cc23)C(=O)N1` [Example 26, 1-(5-((4-(pyridin-3-ylmethyl)piperazin-1-yl)methyl)benzo[d]isoxazol-3-yl)dihydropyrimidine-2,4(1H,3H)-dione] were, in that order, 86%, 14% and 190 nM.
As for `O=C1CCN(c2noc3ccc(CN4CCN(Cc5cccc(F)c5)CC4)cc23)C(=O)N1` [Example 27, 1-(5-((4-(3-fluorobenzyl)piperazin-1-yl)methyl)benzo[d]isoxazol-3-yl)dihydropyrimidine-2,4(1H,3H)-dione], the Dmax at 25 µM is 86%, the remaining activity at 25 µM was 14% and the DC50 came out at 210 nM.
As to `C[C@H]1CN(Cc2ccc3onc(N4CCC(=O)NC4=O)c3c2)CCN1CC1CCCCC1` [Example 28, (S)-1-(5-((4-(cyclohexylmethyl)-3-methylpiperazin-1-yl)methyl)benzo[d]isoxazol-3-yl)dihydropyrimidine-2,4(1H,3H)-dione], the Dmax at 25 µM stood at 90%, the remaining activity at 25 µM turned out to be 10% and the DC50 was determined as 5.4 nM.
On to `CC(C)CN1CCN(Cc2ccc3onc(N4CCC(=O)NC4=O)c3c2)C[C@@H]1C` [Example 30, (S)-1-(5-((4-isobutyl-3-methylpiperazin-1-yl)methyl)benzo[d]isoxazol-3-yl)dihydropyrimidine-2,4(1H,3H)-dione], for which the Dmax at 25 µM is 91%, the remaining activity at 25 µM was 9% and the DC50 is 4.5 nM.
The like results for `C[C@H]1CN(Cc2ccc3onc(N4CCC(=O)NC4=O)c3c2)CCN1CC1CCOCC1` [Example 31, (S)-1-(5-((3-methyl-4-((tetrahydro-2H-pyran-4-yl)methyl)piperazin-1-yl)methyl)benzo[d]isoxazol-3-yl)dihydropyrimidine-2,4(1H,3H)-dione] were, in that order, 91%, 9% and 6.9 nM.
As to `CC(C)CN1CCN(Cc2ccc3onc(N4CCC(=O)NC4=O)c3c2)[C@@H](C)C1` [Example 32, (S)-1-(5-((4-isobutyl-2-methylpiperazin-1-yl)methyl)benzo[d]isoxazol-3-yl)dihydropyrimidine-2,4(1H,3H)-dione], the Dmax at 25 µM is 91%, the remaining activity at 25 µM came to 9% and the DC50 amounted to 99 nM.
The like results for `CC(C)CN1CCN(Cc2ccc3onc(N4CCC(=O)NC4=O)c3c2)[C@H](C)C1` [Example 33, (R)-1-(5-((4-isobutyl-2-methylpiperazin-1-yl)methyl)benzo[d]isoxazol-3-yl)dihydropyrimidine-2,4(1H,3H)-dione] were, in that order, 88%, 12% and 32 nM.
On to `CC(C)CN1CCN(Cc2ccc3onc(N4CCC(=O)NC4=O)c3c2)C[C@H]1C` [Example 34, (R)-1-(5-((4-isobutyl-3-methylpiperazin-1-yl)methyl)benzo[d]isoxazol-3-yl)dihydropyrimidine-2,4(1H,3H)-dione], for which the Dmax at 25 µM amounted to 89%, the remaining activity at 25 µM was 11% and the DC50 was determined as 40 nM.
With `CC(C)[C@H]1CN(Cc2ccc3onc(N4CCC(=O)NC4=O)c3c2)CCN1C` [Example 37, (S)-1-(5-((3-isopropyl-4-methylpiperazin-1-yl)methyl)benzo[d]isoxazol-3-yl)dihydropyrimidine-2,4(1H,3H)-dione], the Dmax at 25 µM amounted to 80%, the remaining activity at 25 µM was determined as 20% and the DC50 was 260 nM.
For `CC(C)[C@H]1CN(Cc2ccc3onc(N4CCC(=O)NC4=O)c3c2)CCN1CC1CCOCC1` [Example 38, (S)-1-(5-((3-isopropyl-4-((tetrahydro-2H-pyran-4-yl)methyl)piperazin-1-yl)methyl)benzo[d]isoxazol-3-yl)dihydropyrimidine-2,4(1H,3H)-dione] the same measures were 76%, 24% and 140 nM.
